Columns and labels:
MDA-MB-231 = test: In vitro cytotoxicity screening, MTT assay; settings: Homo sapiens, MDA-MB-231, 24 h, read-out: In vitro Cytotoxicity (IC50, µM) MDA-MB-231
Description: Two human breast cancer cell lines, namely, MDA-MB-231 and MCF-7 were obtained from American Type Culture Collection (ATCC) via a holding company for biological products and vaccines (VACSERA), Cairo, Egypt. […] The reagents used were RPMI-1640 medium, MTT, DMSO (sigma co., St. Louis, USA), and Fetal bovine serum (GIBCO, UK). […] MTT is a colorimetric assay based on the conversion of the yellow tetrazolium bromide (MTT) to a purple formazan derivative by mitochondrial succinate dehydrogenase in viable cells. Cell lines were cultured in RPMI-1640 medium with 10% foetal bovine serum. Antibiotics added were 100 units/ml penicillin and 100 µg/ml streptomycin maintained at 37 °C in a 5% CO2 incubator. The cell lines were seeded at a density of approximately 1.0 × 10 ^4 cells/well in a 96-well plate at 37 °C for 48 h under 5% CO2. Different concentrations of compounds were added and incubated for 24 h. After 24 h of drug treatment, 20 µl of MTT staining solution at 5 mg/ml was added to each well and incubated for 4 h at 37 °C. After 4 h, 100 µl of dimethyl sulfoxide (DMSO) were added into each well to dissolve the purple formazan crystals formed. The absorbance was recorded at 570 nm using a plate reader (EXL 800, USA). The relative cell viability in percentage was calculated as (A570 of treated samples/A570 of untreated sample) X 100 [22],[23].

PARP-2 enzyme = biological target: T1, PARP-2 enzyme (Homo sapiens, UniProt Q9UGN5); test: Poly (ADP-ribose) polymerase 2 (PARP-2) inhibition assay (colorimetric kit); format: biochemical; settings: for IC50: in vitro enzyme assay
T1 construct: purchased BPS Bioscience 80,581
Protocol: Results were expressed as IC50 values (Table 2).
The PARP-2 inhibitory activity of the test compounds was assayed using PARP-2 Colorimetric Activity Assay Kit (BPS Bioscience, catalog 80,581, San Diego, CA, USA) following the manufacturer’s protocol. Briefly, histone protein mixture was coated on a 96-well microtiter plate and incubated at 4 °C overnight, washed with phosphate-buffered saline with tween-20 (PBST) three times then, the wells were blocked by adding blocking buffer 3 and incubated at room temperature for 60–90 min. After that, the plate was washed with PBST buffer three times. The master mixture which contains the PARP buffer, PARP assay mixture, activated DNA and distilled water was added to each well then, the inhibitor solution (test compound) was added. The reaction was initiated by adding PARP-2 enzyme to the wells and the plate was incubated for 1 h at room temperature. After 1 h, the reaction mixture was discarded, and the plate was washed with PBST buffer three times. Finally, the plate was treated with Streptavidin–Horseradish Peroxidase (HRP) and incubated for 30 min at room temperature and then washed with PBST buffer. The colorimetric HRP substrate was added to each well and incubated at room temperature until the positive control well developed blue color. Sulphuric acid was added to each well after the blue color development. The absorbance was read at 450 nm using UV/Vis spectrophotometer microplate reader.
Suppl. S2. In vitro PARP-2 enzyme inhibition assay
Researcher : Dr. Nadeen Ghobashy email:elghobashynadeen@gmail.com mob.01008873340
Reader : ROBONIK P2000 Eliza Reader wl 450 nm

T1 sequence (Q9UGN5 whole entry): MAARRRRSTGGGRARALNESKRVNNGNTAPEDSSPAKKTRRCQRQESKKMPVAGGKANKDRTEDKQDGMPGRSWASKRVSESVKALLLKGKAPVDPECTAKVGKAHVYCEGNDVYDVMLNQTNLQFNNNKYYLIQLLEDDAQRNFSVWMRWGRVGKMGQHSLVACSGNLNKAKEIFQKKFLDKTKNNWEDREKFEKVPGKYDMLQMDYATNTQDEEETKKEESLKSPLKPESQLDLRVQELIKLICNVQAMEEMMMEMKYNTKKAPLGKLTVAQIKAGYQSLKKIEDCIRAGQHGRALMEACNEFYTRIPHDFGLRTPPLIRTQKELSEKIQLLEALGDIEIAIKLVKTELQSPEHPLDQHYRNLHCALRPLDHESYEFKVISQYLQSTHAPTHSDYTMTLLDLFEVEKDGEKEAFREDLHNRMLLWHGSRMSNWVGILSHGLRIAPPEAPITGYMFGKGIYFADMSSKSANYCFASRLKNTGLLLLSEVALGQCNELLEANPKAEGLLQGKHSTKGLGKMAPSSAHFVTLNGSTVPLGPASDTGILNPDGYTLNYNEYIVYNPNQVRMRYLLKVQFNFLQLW

SMILES | melting point [°C] | %inh of PARP-2 (Table S2 raw data) (PARP-2 enzyme; conc 0.01 (ng/ml)) [%] | %inh of PARP-2 (Table S2 raw data) (PARP-2 enzyme; conc 0.1 (ng/ml)) [%] | %inh of PARP-2 (Table S2 raw data) (PARP-2 enzyme; conc 1 (ng/ml)) [%] | %inh of PARP-2 (Table S2 raw data) (PARP-2 enzyme; conc 10 (ng/ml)) [%] | IC50 (PARP-2 enzyme) [µM] | IC50 (MDA-MB-231) [µM]
Nc1ccc(-c2nc3cc(Cl)ccc3o2)cc1 [Compound 3, 4-(5-chlorobenzoxazol-2-yl)aniline] | – | – | – | – | – | – | 24 ± 1.8
O=C(CCl)Nc1ccc(-c2nc3cc(Cl)ccc3o2)cc1 [Compound 4, 2-chloro-N-(4-(5-chlorobenzoxazol-2-yl)phenyl)acetamide] | 218 to 220 | – | – | – | – | – | 43.2 ± 2.7
O=C(CCCl)Nc1ccc(-c2nc3cc(Cl)ccc3o2)cc1 [Compound 5, 3-chloro-N-(4-(5-chlorobenzoxazol-2-yl)phenyl)propanamide] | 210 to 212 | – | – | – | – | – | 55.7 ± 3.2
O=C(CN1CCCCC1)Nc1ccc(-c2nc3cc(Cl)ccc3o2)cc1 [Compound 6, N-(4-(5-chlorobenzoxazol-2-yl)phenyl)-2-(piperidin-1-yl)acetamide] | 180 to 182 | – | – | – | – | – | 42.5 ± 2.8
O=C(CN1CCOCC1)Nc1ccc(-c2nc3cc(Cl)ccc3o2)cc1 [Compound 7, N-(4-(5-chlorobenzoxazol-2-yl)phenyl)-2-morpholinoacetamide] | 178 to 180 | – | – | – | – | – | 51.6 ± 3
CN1CCN(CC(=O)Nc2ccc(-c3nc4cc(Cl)ccc4o3)cc2)CC1 [Compound 8, N-(4-(5-chlorobenzoxazol-2-yl)phenyl)-2-(4-methylpiperazin-1-yl)acetamide] | 179 to 181 | – | – | – | – | – | 30.9 ± 2.3
CCN1CCN(CC(=O)Nc2ccc(-c3nc4cc(Cl)ccc4o3)cc2)CC1 [Compound 9, N-(4-(5-chlorobenzoxazol-2-yl)phenyl)-2-(4-ethylpiperazin-1-yl)acetamide] | 153 to 155 | – | – | – | – | – | 39.5 ± 2.6
O=C(CN1CCN(Cc2ccccc2)CC1)Nc1ccc(-c2nc3cc(Cl)ccc3o2)cc1 [Compound 10, 2-(4-benzylpiperazin-1-yl)-N-(4-(5-chlorobenzoxazol-2-yl)phenyl)acetamide] | 195 to 197 | – | – | – | – | – | 71.7 ± 3.5
CCN1CCN(CCC(=O)Nc2ccc(-c3nc4cc(Cl)ccc4o3)cc2)CC1 [Compound 14, N-(4-(5-chlorobenzoxazol-2-yl)phenyl)-3-(4-ethylpiperazin-1-yl)propanamide] | 167 to 169 | 33.28 | 46.83 | 75.72 | 90.54 | 0.084 ± 0.005 | 10.8 ± 0.9
O=C(CCN1CCN(Cc2ccccc2)CC1)Nc1ccc(-c2nc3cc(Cl)ccc3o2)cc1 [Compound 15, 3-(4-benzylpiperazin-1-yl)-N-(4-(5-chlorobenzoxazol-2-yl)phenyl)propanamide] | 182 to 184 | – | – | – | – | – | 35.3 ± 2.5
O=C(CN1CCN(c2ccccc2)CC1)Nc1ccc(-c2nc3cc(Cl)ccc3o2)cc1 [Compound 16, N-(4-(5-chlorobenzoxazol-2-yl)phenyl)-2-(4-phenylpiperazin-1-yl)acetamide] | 231 to 233 | – | – | – | – | – | 78.8 ± 3.8
COc1ccccc1N1CCN(CC(=O)Nc2ccc(-c3nc4cc(Cl)ccc4o3)cc2)CC1 [Compound 17, N-(4-(5-chlorobenzoxazol-2-yl)phenyl)-2-(4-(2-methoxyphenyl)piperazin-1-yl)acetamide] | 218 to 220 | – | – | – | – | – | 48 ± 2.9
CNC(=O)c1cc(Oc2ccc(NC(=O)Nc3ccc(Cl)c(C(F)(F)F)c3)cc2)ccn1 [Sorafenib, reference compound] | – | – | – | – | – | – | 7.47 ± 0.3

Second part, led by results:

melting point [°C] | %inh of PARP-2 (Table S2 raw data) (PARP-2 enzyme; conc 0.01 (ng/ml)) [%] | %inh of PARP-2 (Table S2 raw data) (PARP-2 enzyme; conc 0.1 (ng/ml)) [%] | %inh of PARP-2 (Table S2 raw data) (PARP-2 enzyme; conc 1 (ng/ml)) [%] | %inh of PARP-2 (Table S2 raw data) (PARP-2 enzyme; conc 10 (ng/ml)) [%] | IC50 (PARP-2 enzyme) [µM] | SMILES | IC50 (MDA-MB-231) [µM]
239 to 241 | – | – | – | – | – | O=C(CCN1CCN(c2ccccc2)CC1)Nc1ccc(-c2nc3cc(Cl)ccc3o2)cc1 [Compound 18, N-(4-(5-chlorobenzoxazol-2-yl)phenyl)-3-(4-phenylpiperazin-1-yl)propanamide] | 19.2 ± 1.6
211 to 213 | – | – | – | – | – | COc1ccccc1N1CCN(CCC(=O)Nc2ccc(-c3nc4cc(Cl)ccc4o3)cc2)CC1 [Compound 19, N-(4-(5-chlorobenzoxazol-2-yl)phenyl)-3-(4-(2-methoxyphenyl)piperazin-1-yl)propanamide] | 22.5 ± 1.9
158 to 160 | – | – | – | – | – | O=C(CNCc1ccccc1)Nc1ccc(-c2nc3cc(Cl)ccc3o2)cc1 [Compound 20, 2-(benzylamino)-N-(4-(5-chlorobenzoxazol-2-yl)phenyl)acetamide] | 47.6 ± 2.8
129 to 131 | 20.88 | 36.15 | 52.41 | 81.94 | 0.406 ± 0.022 | O=C(CNCCc1ccccc1)Nc1ccc(-c2nc3cc(Cl)ccc3o2)cc1 [Compound 21, N-(4-(5-chlorobenzoxazol-2-yl)phenyl)-2-(phenethylamino)acetamide] | 12.2 ± 1
93 to 95 | 27.08 | 33.43 | 58.97 | 86.49 | 0.267 ± 0.015 | O=C(CNCCCc1ccccc1)Nc1ccc(-c2nc3cc(Cl)ccc3o2)cc1 [Compound 22, N-(4-(5-chlorobenzoxazol-2-yl)phenyl)-2-((3-phenylpropyl)amino)acetamide] | 17.4 ± 1.4
109 to 111 | – | – | – | – | – | O=C(CCNCc1ccccc1)Nc1ccc(-c2nc3cc(Cl)ccc3o2)cc1 [Compound 23, 3-(benzylamino)-N-(4-(5-chlorobenzoxazol-2-yl)phenyl)propanamide] | 62.1 ± 3.4
73 to 75 | – | – | – | – | – | O=C(CCNCCc1ccccc1)Nc1ccc(-c2nc3cc(Cl)ccc3o2)cc1 [Compound 24, N-(4-(5-chlorobenzoxazol-2-yl)phenyl)-3-(phenethylamino)propanamide] | 26.5 ± 2.1
87 to 89 | 36.11 | 47.92 | 73.45 | 88.59 | 0.074 ± 0.004 | O=C(CCNCCCc1ccccc1)Nc1ccc(-c2nc3cc(Cl)ccc3o2)cc1 [Compound 25, N-(4-(5-chlorobenzoxazol-2-yl)phenyl)-3-((3-phenylpropyl)amino)propanamide] | 15.6 ± 1.2
133 to 135 | 21.36 | 38.75 | 55.9 | 86.92 | 0.292 ± 0.016 | CCN(CC)CC(=O)Nc1ccc(-c2nc3cc(Cl)ccc3o2)cc1 [Compound 26, N-(4-(5-chlorobenzoxazol-2-yl)phenyl)-2-(diethylamino)acetamide] | 18.6 ± 1.3
167 to 169 | – | – | – | – | – | [N-]=[N+]=Nc1ccc(-c2nc3cc(Cl)ccc3o2)cc1 [Compound 28, 2-(4-azidophenyl)-5-chlorobenzoxazole] | > 100
251 to 253 | – | – | – | – | – | CCOC(=O)c1nnn(-c2ccc(-c3nc4cc(Cl)ccc4o3)cc2)c1C [Compound 29, Ethyl 1-(4-(5-chlorobenzoxazol-2-yl)phenyl)-5-methyl-1H-1,2,3-triazole-4-carboxylate] | 76 ± 3.8
212 to 214 | – | – | – | – | – | CC(=O)c1nnn(-c2ccc(-c3nc4cc(Cl)ccc4o3)cc2)c1C [Compound 30, 1-(1-(4-(5-chlorobenzoxazol-2-yl)phenyl)-5-methyl-1H-1,2,3-triazol-4-yl)ethan-1-one] | 73.9 ± 3.6

— publication PMC9519869, “Synthesis, biological evaluation, and molecular modeling studies of new benzoxazole derivatives as PARP-2 inhibitors targeting breast cancer” (Scientific Reports, 2022)
